The source of these data is ChEMBL document CHEMBL4765457, “Targeting dual tolerant regions of binding pocket: Discovery of novel morpholine-substituted diarylpyrimidines as potent HIV-1 NNRTIs with significantly improved water solubility” (Eur J Med Chem, 2020).

Values after ≈ are worked out from the molar mass of the structure shown.

The test system of data set [1] is Human immunodeficiency virus 1. Briefly: Antiviral activity against HIV1 3B infected in human MT4 cells assessed as virus-induced cytopathic effect incubated for 5 days by MTT assay. Conditions: Human immunodeficiency virus 1, 3B, MT4, 120 h. The format is functional, organism-based.
Data set [2] concerns Human immunodeficiency virus 1. Put plainly: Antiviral activity against HIV1 RES056 infected in human MT4 cells assessed as inhibition of virus-induced cytopathic effect incubated for 5 days by MTT assay. The format is functional, organism-based. Conditions: Human immunodeficiency virus 1, RES056, MT4, 120 h.
Data set [3] is described as follows: Cytotoxicity against human MT4 cells assessed as reduction in cell viability incubated for 5 days by MTT assay. Type of data set: cell-based. The conditions noted are these: time 5 day.
Data set [4] is described as follows: Selectivity index, ratio of CC50 for human MT4 cells to EC50 for antiviral activity against HIV1 3B infected in human MT4 cells. Type of data set: toxicity, cell-based. Conditions: read-out: Ratio CC50/EC50.
The nature of data set [5]: Selectivity index, ratio of CC50 for human MT4 cells to EC50 for antiviral activity against HIV1 RES056 infected in human MT4 cells. The conditions noted are these: read-out: Ratio CC50/EC50. The format is toxicity, cell-based.
In data set [6] the test system is Human immunodeficiency virus 1. Put plainly: Antiviral activity against HIV1 harboring RT L100I mutant infected in human MT4 cells assessed as inhibition of virus-induced cytopathic effect incubated for 5 days by MTT assay. Type of data set: functional, organism-based. Conditions: Human immunodeficiency virus 1, MT4, 120 h.
For data set [7], the system named is Human immunodeficiency virus 1. Put plainly: Antiviral activity against HIV1 harboring RT K103N mutant infected in human MT4 cells assessed as inhibition of virus-induced cytopathic effect incubated for 5 days by MTT assay. Type of data set: functional, organism-based. Conditions: Human immunodeficiency virus 1, MT4, 120 h.
For data set [8], the system named is Human immunodeficiency virus 1. Briefly: Antiviral activity against HIV1 harboring RT Y181C mutant infected in human MT4 cells assessed as inhibition of virus-induced cytopathic effect incubated for 5 days by MTT assay. Conditions: Human immunodeficiency virus 1, MT4, 120 h. The format is functional, organism-based.
Data set [9] has as its system Human immunodeficiency virus 1. Put plainly: Antiviral activity against HIV1 harboring RT Y188L mutant infected in human MT4 cells assessed as inhibition of virus-induced cytopathic effect incubated for 5 days by MTT assay. Type of data set: functional, organism-based. The conditions noted are these: Human immunodeficiency virus 1, MT4, 120 h.
The subject of data set [10] is Human immunodeficiency virus 1. Put plainly: Antiviral activity against HIV1 harboring RT E138K mutant infected in human MT4 cells assessed as inhibition of virus-induced cytopathic effect incubated for 5 days by MTT assay. The format is functional, organism-based. The conditions noted are these: Human immunodeficiency virus 1, MT4, 120 h.
Data set [11] deals with Human immunodeficiency virus 1. Put plainly: Antiviral activity against HIV1 harboring RT F227L/V106Amutant infected in human MT4 cells assessed as inhibition of virus-induced cytopathic effect incubated for 5 days by MTT assay. The format is functional, organism-based. The conditions noted are these: Human immunodeficiency virus 1, MT4, 120 h.
Data set [12] deals with Human immunodeficiency virus 1. Put plainly: Potency index, ratio of nevirapine EC50 to test compound EC50 for antiviral activity against HIV1 harboring K103N mutant infected in human MT4 cells. Type of data set: functional.
The subject of data set [13] is Human immunodeficiency virus 1. Briefly: Potency index, ratio of lamivudine EC50 to test compound EC50 for antiviral activity against HIV1 harboring K103N mutant infected in human MT4 cells. The format is functional.
The nature of data set [14]: Resistance index, ratio of EC50 for antiviral activity against HIV1 expressing RT L100I mutant infected in human MT4 cells to EC50 for antiviral activity against HIV1 3B infected in human MT4 cells. The format is functional.
A short description of data set [15]: Resistance index, ratio of EC50 for antiviral activity against HIV1 expressing RT K103N mutant infected in human MT4 cells to EC50 for antiviral activity against HIV1 3B infected in human MT4 cells. The format is functional.
The nature of data set [16]: Resistance index, ratio of EC50 for antiviral activity against HIV1 expressing RT Y181C mutant infected in human MT4 cells to EC50 for antiviral activity against HIV1 3B infected in human MT4 cells. Type of data set: functional.
The nature of data set [17]: Resistance index, ratio of EC50 for antiviral activity against HIV1 expressing RT Y188L mutant infected in human MT4 cells to EC50 for antiviral activity against HIV1 3B infected in human MT4 cells. The format is functional.
Data set [18] is described as follows: Resistance index, ratio of EC50 for antiviral activity against HIV1 expressing RT E138K mutant infected in human MT4 cells to EC50 for antiviral activity against HIV1 3B infected in human MT4 cells. Type of data set: functional.
Data set [19] can be described thus: Resistance index, ratio of EC50 for antiviral activity against HIV1 expressing RT F227L/V106A mutant infected in human MT4 cells to EC50 for antiviral activity against HIV1 3B infected in human MT4 cells. Type of data set: functional.
Data set [20] relates to Human immunodeficiency virus 1. Briefly: Potency index, ratio of lamivudine EC50 to test compound EC50 for antiviral activity against HIV1 3B infected in human MT4 cells. Type of data set: functional.
Data set [21] relates to Human immunodeficiency virus 1. Put plainly: Potency index, ratio of zidovudine EC50 to test compound EC50 for antiviral activity against HIV1 3B infected in human MT4 cells. The format is functional.
Data set [22] can be described thus: Inhibition of HIV1 reverse transcriptase assessed as reduction in biotin-dUTP incorporation into template preincubated for 1 hr followed by template/primer and dNTP addition and measured after 1 hr by ELISA. Further details: species or system Human immunodeficiency virus 1.
A short description of data set [23]: Solubility of compound in water at pH 7.4. The format is physicochemical.
A short description of data set [24]: Solubility of compound in water at pH 7. Type of data set: physicochemical.
Data set [25] is described as follows: Solubility of compound in water at pH 2. Type of data set: physicochemical.

Turning to `Cc1cc(C#N)cc(C)c1Oc1nc(NC2CCN(CCN3CCOCC3)CC2)nc2cc(F)ccc12`, the EC50 in data set [1] was 0.241 µM; in data set [2], above 16.9 µM; in [6] it was 1.24 µM; in data set [7], 0.522 µM; in [8], 1.35 µM; in [9] it was 2.4 µM. The values for the EC50 in data set [10] and in data set [11] were 0.963 µM and 2.92 µM, respectively. The CC50 at 120 h in data set [3] is 16.9 µM. The selectivity ratio in [4] is 70; in [5] it was below 1. For the same molecule, the “Ratio EC50” value in data set [12] came out at 10; in data set [13], 8; in [14], 5.1; in data set [15], 2.2; in data set [16], 5.6; in data set [17] it was 10. Besides, the “Ratio EC50” value came to 4 in data set [18] and 12.1 in data set [19].

For the molecule `Cc1cc(C#N)cc(C)c1Oc1nc(NC2CCN(CC(=O)N3CCOCC3)CC2)nc2c1SCC2`, the EC50 in data set [1] is 0.058 µM; in data set [2] it was above 38.6 µM; in data set [6] it was 6.12 µM; in data set [7], 1.28 µM; in [8], 5.45 µM; in data set [9], 5.21 µM. The values for the EC50 in [10] and in data set [11] were 1.31 µM and above 38.6 µM, respectively. Also, the half-maximal cytotoxic concentration (CC50) at 120 h in data set [3] worked out at 38.6 µM. Further, the selectivity ratio is 663 in data set [4] and below 1 in [5]. The “Ratio EC50” value in [20] is recorded as “<=87”; in data set [21], 2.8; in [14], 105; in data set [15] it was 21.9; in [16], 93.5; in data set [17], 89.4. For the same molecule, the results for the “Ratio EC50” value in [18] and in data set [19] were 22.6 and above 662.9, respectively. The 50% inhibitory concentration (IC50) in data set [22] came to 3.37 µM. The solubility in [23] stood at 29.1 µg/mL (≈ 57.2 µM); in data set [24], 35.2 µg/mL (≈ 69.2 µM); in data set [25], 248 µg/mL (≈ 488 µM).

With `Cc1cc(C#N)cc(C)c1Oc1nc(NC2CCN(CC(=O)N3CCOCC3)CC2)nc2sccc12`, the EC50 in [1] is 0.082 µM; in [2] it was above 36.3 µM; in [6], 3.67 µM; in data set [7] it was 1.62 µM; in data set [8], 3.64 µM; in [9] it was 7.18 µM. The half-maximal effective concentration (EC50) in [10] was 0.334 µM; in [11], 13.8 µM. Also, the cytotoxic concentration (CC50) at 120 h in data set [3] stood at 36.3 µM. The results for the selectivity ratio in data set [4] and in [5] were 442 and below 1, respectively. Further, the “Ratio EC50” value in [14] is 44.8; in data set [15], 19.8; in data set [16] it was 44.3; in data set [17] it was 87.5; in data set [18], 4.1; in data set [19], 168. Moreover, the IC50 in data set [22] was determined as 1.49 µM. Moreover, the solubility in [23] is 27.6 µg/mL (≈ 54.5 µM); in [24] it was 34.2 µg/mL (≈ 67.5 µM); in data set [25], 228 µg/mL (≈ 450 µM).
